{"source": "patent US20150105252A1", "about": "“SUBSTITUTED PYRAZOLES AS HERBICIDES” (E I DU PONT DE NEMOURS AND COMPANY, priority 2013, published 2015)", "key": {"barnyardgrass [1]": {"tested_on": "barnyardgrass", "assay": "Test A preemergence", "assay_type": "in vivo, Echinochloa crus-galli", "settings": "preemergence", "outline": "(§1)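 Seeds were sown in a loam soil–sand blend and given a directed soil spray preemergence; postemergence plants at 2–10 cm, one- to two-leaf stage, were sprayed with compound in non-phytotoxic solvent with surfactant. After about 10 days in a greenhouse, injury was visually rated against untreated controls (0 = no effect, 100 = complete control).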"}, "blackgrass": {"tested_on": "blackgrass", "assay": "Test C preemergence", "assay_type": "in vivo, Alopecurus myosuroides", "settings": "for Blackgrass plant response rating: scale 0 to 100 (0 no effect, 100 complete control)", "outline": "(§2)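 Greenhouse pot test: preemergence application onto freshly seeded loam/sand mix, postemergence application onto seedlings (1–4 leaves, 2–18 cm) in peat-vermiculite substrate. Responses scored visually 13 to 15 days later relative to controls, where 0 means no effect and 100 means complete control; a dash indicates no result.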"}, "pigweed": {"tested_on": "pigweed", "assay": "Test A postemergence", "assay_type": "in vivo, Amaranthus retroflexus", "outline": "as §1"}, "velvetleaf [2]": {"tested_on": "velvetleaf", "assay": "Test A preemergence", "assay_type": "in vivo, Abutilon theophrasti", "settings": "preemergence", "outline": "as §1"}, "corn [3]": {"tested_on": "corn", "assay": "Test C preemergence", "assay_type": "in vivo, Zea mays", "settings": "for Corn plant response rating: scale 0 to 100 (0 no effect, 100 complete control)", "outline": "as §2"}, "corn [4]": {"tested_on": "corn", "assay": "Test A preemergence", "assay_type": "in vivo, Zea mays", "settings": "preemergence", "outline": "as §1"}, "barnyardgrass [5]": {"tested_on": "barnyardgrass", "assay": "Test C preemergence", "assay_type": "in vivo, Echinochloa crus-galli", "settings": "for Barnyardgrass plant response rating: scale 0 to 100 (0 no effect, 100 complete control)", "outline": "as §2"}, "foxtail, giant": {"tested_on": "foxtail, giant", "assay": "Test C preemergence", "assay_type": "in vivo, Setaria faberii", "settings": "for Foxtail, Giant plant response rating: scale 0 to 100 (0 no effect, 100 complete control)", "outline": "as §2"}, "velvetleaf [6]": {"tested_on": "velvetleaf", "assay": "Test C preemergence", "assay_type": "in vivo, Abutilon theophrasti", "settings": "for Velvetleaf plant response rating: scale 0 to 100 (0 no effect, 100 complete control)", "outline": "as §2"}, "wheat [7]": {"tested_on": "wheat", "assay": "Test C preemergence", "assay_type": "in vivo, Triticum aestivum", "settings": "for Wheat plant response rating: scale 0 to 100 (0 no effect, 100 complete control)", "outline": "as §2"}, "johnsongrass": {"tested_on": "johnsongrass", "assay": "Test C preemergence", "assay_type": "in vivo, Sorghum halepense", "settings": "for Johnsongrass plant response rating: scale 0 to 100 (0 no effect, 100 complete control)", "outline": "as §2"}, "crabgrass, large [8]": {"tested_on": "crabgrass, large", "assay": "Test A postemergence", "assay_type": "in vivo, Digitaria sanguinalis", "outline": "as §1"}, "wheat [9]": {"tested_on": "wheat", "assay": "Test A postemergence", "assay_type": "in vivo, Triticum aestivum", "outline": "as §1"}, "wheat [10]": {"tested_on": "wheat", "assay": "Test A preemergence", "assay_type": "in vivo, Triticum aestivum", "settings": "preemergence", "outline": "as §1"}, "crabgrass, large [11]": {"tested_on": "crabgrass, large", "assay": "Test A preemergence", "assay_type": "in vivo, Digitaria sanguinalis", "settings": "preemergence", "outline": "as §1"}, "oilseed rape": {"tested_on": "oilseed rape", "assay": "Test C preemergence", "assay_type": "in vivo, Brassica napus", "settings": "for Oilseed Rape plant response rating: scale 0 to 100 (0 no effect, 100 complete control)", "outline": "as §2"}, "ragweed": {"tested_on": "ragweed", "assay": "Test C preemergence", "assay_type": "in vivo, Ambrosia elation", "settings": "for Ragweed plant response rating: scale 0 to 100 (0 no effect, 100 complete control)", "outline": "as §2"}, "[12]": {"settings": "125 g ai/ha, visual injury, 0 to 100 scale, approx. 10 days"}, "[13]": {"settings": "500 g ai/ha, visual injury after approx. 10 days, 0 to 100 scale (0 no effect, 100 complete control)"}, "[14]": {"settings": "preemergence, 31 g ai/ha, visual rating, 13 to 15 days"}, "[15]": {"settings": "preemergence, 62 g ai/ha, 13 to 15 days"}, "[16]": {"settings": "preemergence, 125 g ai/ha, 13 to 15 days, scale 0 to 100, 0 = no effect, 100 = complete control"}, "[17]": {"settings": "Postemergence, 500 g ai/ha, 0 to 100 scale (0 no effect, 100 complete control)"}, "[18]": {"settings": "postemergence, 125 g ai/ha, about 10 days, visual rating on 0 to 100 scale (0 no effect, 100 complete control)"}}, "data": [{"smiles": "CCCNC(=O)c1cc(CC)n(Cc2ccnc(OC(F)F)c2)n1", "note": "[Compound 132]", "values": [{"measurement": "Barnyardgrass plant response rating", "setting": "barnyardgrass [1]; [12]", "result": 100}, {"measurement": "Barnyardgrass plant response rating", "setting": "barnyardgrass [1]; [13]", "result": 100}, {"measurement": "Plant response rating (scale of 0 to 100), Blackgrass", "setting": "blackgrass; Preemergence, 250 g ai/ha", "result": 98}, {"measurement": "Blackgrass plant response rating", "setting": "blackgrass; [14]", "result": 95}, {"measurement": "Blackgrass plant response rating", "setting": "blackgrass; [15]", "result": 98}, {"measurement": "Plant response rating, Blackgrass", "setting": "blackgrass; [16]", "result": 98}, {"measurement": "Pigweed plant response rating", "setting": "pigweed; [17]", "result": 100}, {"measurement": "Pigweed plant response rating", "setting": "pigweed; [18]", "result": 90}, {"measurement": "Velvetleaf plant response rating", "setting": "velvetleaf [2]; [12]", "result": 100}, {"measurement": "Velvetleaf plant response rating", "setting": "velvetleaf [2]; [13]", "result": 100}, {"measurement": "Plant response rating (scale of 0 to 100), Corn", "setting": "corn [3]; Preemergence, 250 g ai/ha", "result": 95}, {"measurement": "Corn plant response rating", "setting": "corn [3]; [14]", "result": 55}, {"measurement": "Corn plant response rating", "setting": "corn [3]; [15]", "result": 25}, {"measurement": "Plant response rating, Corn", "setting": "corn [3]; [16]", "result": 95}, {"measurement": "Corn plant response rating", "setting": "corn [4]; [12]", "result": 40}, {"measurement": "Corn plant response rating", "setting": "corn [4]; [13]", "result": 80}, {"measurement": "Plant response rating (scale of 0 to 100), Barnyardgrass", "setting": "barnyardgrass [5]; Preemergence, 250 g ai/ha", "result": 100}, {"measurement": "Barnyardgrass plant response rating", "setting": "barnyardgrass [5]; preemergence, 31 g ai/ha, 13 to 15 days", "result": 95}, {"measurement": "Barnyardgrass plant response rating", "setting": "barnyardgrass [5]; [15]", "result": 100}, {"measurement": "Plant response rating, Barnyardgrass", "setting": "barnyardgrass [5]; [16]", "result": 100}, {"measurement": "Plant response rating (scale of 0 to 100), Foxtail, Giant", "setting": "foxtail, giant; Preemergence, 250 g ai/ha", "result": 100}, {"measurement": "Foxtail, Giant plant response rating", "setting": "foxtail, giant; [14]", "result": 95}, {"measurement": "Foxtail, Giant plant response rating", "setting": "foxtail, giant; [15]", "result": 100}, {"measurement": "Plant response rating, Foxtail, Giant", "setting": "foxtail, giant; [16]", "result": 100}, {"measurement": "Plant response rating (scale of 0 to 100), Velvetleaf", "setting": "velvetleaf [6]; Preemergence, 250 g ai/ha", "result": 100}, {"measurement": "Velvetleaf plant response rating", "setting": "velvetleaf [6]; [14]", "result": 55}, {"measurement": "Velvetleaf plant response rating", "setting": "velvetleaf [6]; [15]", "result": 100}, {"measurement": "Plant response rating, Velvetleaf", "setting": "velvetleaf [6]; [16]", "result": 100}, {"measurement": "Plant response rating (scale of 0 to 100), Wheat", "setting": "wheat [7]; Preemergence, 250 g ai/ha", "result": 95}, {"measurement": "Wheat plant response rating", "setting": "wheat [7]; [14]", "result": 15}, {"measurement": "Wheat plant response rating", "setting": "wheat [7]; [15]", "result": 15}, {"measurement": "Plant response rating, Wheat", "setting": "wheat [7]; [16]", "result": 70}, {"measurement": "Plant response rating (scale of 0 to 100), Johnsongrass", "setting": "johnsongrass; Preemergence, 250 g ai/ha", "result": 100}, {"measurement": "Johnsongrass plant response rating", "setting": "johnsongrass; [14]", "result": 25}, {"measurement": "Johnsongrass plant response rating", "setting": "johnsongrass; [15]", "result": 90}, {"measurement": "Plant response rating, Johnsongrass", "setting": "johnsongrass; [16]", "result": 100}, {"measurement": "Crabgrass, Large plant response rating", "setting": "crabgrass, large [8]; [17]", "result": 90}, {"measurement": "Crabgrass, Large plant response rating", "setting": "crabgrass, large [8]; [18]", "result": 90}, {"measurement": "Wheat plant response rating", "setting": "wheat [9]; [17]", "result": 90}, {"measurement": "Wheat plant response rating", "setting": "wheat [9]; [18]", "result": 80}, {"measurement": "Wheat plant response rating", "setting": "wheat [10]; [12]", "result": 80}, {"measurement": "Wheat plant response rating", "setting": "wheat [10]; [13]", "result": 100}, {"measurement": "Crabgrass, Large plant response rating", "setting": "crabgrass, large [11]; [12]", "result": 100}, {"measurement": "Crabgrass, Large plant response rating", "setting": "crabgrass, large [11]; [13]", "result": 100}, {"measurement": "Plant response rating (scale of 0 to 100), Oilseed Rape", "setting": "oilseed rape; Preemergence, 250 g ai/ha", "result": 100}, {"measurement": "Oilseed Rape plant response rating", "setting": "oilseed rape; [14]", "result": 75}, {"measurement": "Oilseed Rape plant response rating", "setting": "oilseed rape; [15]", "result": 98}, {"measurement": "Plant response rating, Oilseed Rape", "setting": "oilseed rape; [16]", "result": 100}, {"measurement": "Plant response rating (scale of 0 to 100), Ragweed", "setting": "ragweed; Preemergence, 250 g ai/ha", "result": 100}, {"measurement": "Ragweed plant response rating", "setting": "ragweed; [14]", "result": 70}, {"measurement": "Ragweed plant response rating", "setting": "ragweed; [15]", "result": 90}, {"measurement": "Plant response rating, Ragweed", "setting": "ragweed; [16]", "result": 100}]}]}
